Peptide text beside a SMILES is read from it.

For test [1], the system named is Botrytis cinerea (B05.10). The experiment in a line: Resazurin antifungal assay of 180 alpha-factor peptide variants towards Botrytis (Example 2). Particulars: % inhibition of fungal growth, Botrytis conidia, resazurin; for Inhibition at 50 μM: peptide 50 μM; for Inhibition at 100 μM: peptide 100 μM. The class given is cell-based. In a few lines:
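Resazurin viability read-out (570/620 nm fluorescence) after a 24 h, 20° C incubation of B05.10 conidia, 5000 per well, with peptide at final 10-100 μM. Growth inhibition (%) was derived by subtracting conidia-only fluorescence; four replicates per treatment.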
In general terms: Alamar Blue is a resazurin reagent that responds to reducing activity.

The subject of test [2] is Botrytis cinerea (B05.10). The test can be described thus: Resazurin antifungal assay of 23 alpha-factor peptides (dimers, hybrids) towards Botrytis (Example 15, Table 6). Particulars: for Inhibition at 2.5 μM / active against Botrytis at 2.5 μM: peptide 2.5 μM; for Inhibition at 2.5 μM / Inhibition at 5 μM / Inhibition at 10 μM / Inhibition at 20 μM / Inhibition at 50 μM: resazurin assay, % inhibition of fungal growth, Botrytis cinerea B05.10; for Inhibition at 5 μM: peptide 5 μM; for Inhibition at 10 μM: peptide 10 μM; for Inhibition at 20 μM: peptide 20 μM; for Inhibition at 50 μM: peptide 50 μM. The arrangement: key to active against Botrytis at 2.5 μM: Peptides that showed greater than 90% inhibition were considered active against Botrytis. The class given is cell-based. On the procedure:
The antifungal activity of […] alpha-factor peptide variants towards Botrytis was tested. Experimental design:
Peptides corresponding to SEQ ID NO: 261-264 and 401-420 were chemically synthesized using the solid-phase synthesis method and resuspended in water to a stock solution of 1 mM. The stock solution was aliquoted in cryovials and stored at −80° C.
The Botrytis cinerea culture (B05.10) isolate was acquired from the Centraalbureau voor Schimmelcultures, the Netherlands. The Botrytis fungus was propagated on 0.5% V8 agar plates (200 ml V8 Juice, 3 g CaCO3, 15 g agar, 800-ml millipore water) at 20° C., in a 12 h photoperiod for 21 days.
Fungal conidia were harvested by scraping a Botrytis plate flooded with 1 ml water with 0.1% Tween 80 solution. Conidia were then collected in a 50 ml falcon tube by passing the solution through a 40 micron filter. The solution was then centrifuged at 6000 rpm and the pellet was resuspended in 1 ml of 20% glycerol. The conidia concentration of the resulting solution was counted using a hemocytometer. The stock was diluted to […] using 20% glycerol and frozen in 100 μl aliquots in −80° C. until further use.
Peptides were tested for activity against Botrytis, using the resazurin assay. For this, fungal stock conidia was first diluted to 5000 conidia/well. 50 μl of the spore suspension was added to each well of the sterile 96-well clear bottom testing plate and mixed with 50 μl of peptide solutions to a final concentration of 100, 50, 20, 10, 5 and 2.5 μM. The plate was incubated for 24 h at 20° C. After 24 h, 10 μl of resazurin dye was added to the microtiter plate and incubated again for […]. Fluorescence was measured at 570/620 nm after 4 h of incubation with resazurin.
Growth inhibition was calculated by subtracting the fluorescence values of conidia only wells from sample wells and depicted as % inhibition of fungal growth. Four technical replicates were used for all treatments.

Regarding `CSCC[C@H](NC(=O)[C@@H]1CCCN1C(=O)[C@H](CCC(N)=O)NC(=O)CNC(=O)[C@@H]1CCCN1C(=O)[C@H](CCCCN)NC(=O)[C@H](Cc1ccccc1)NC(=O)[C@H](CCC(=O)O)NC(=O)[C@H](CC(C)C)NC(=O)[C@@H](NC(=O)[C@H](Cc1c[nH]cn1)NC(=O)[C@@H](N)CCCCN)[C@@H](C)O)C(=O)N[C@@H](Cc1ccc(O)cc1)C(=O)O` [compound 177] (H-KHTLEFKPGQPMY-OH; N-terminus and C-terminus assumed), in test [1], the “Inhibition at 50 μM” value is reported as less than 90% and the “Inhibition at 100 μM” value was less than 90%.
Take `CSCC[C@H](NC(=O)[C@@H]1CCCN1C(=O)[C@H](CCC(N)=O)NC(=O)CNC(=O)[C@@H]1CCCN1C(=O)[C@H](Cc1c[nH]c2ccccc12)NC(=O)[C@H](Cc1ccccc1)NC(=O)[C@H](CCC(N)=O)NC(=O)[C@@H](NC(=O)[C@H](CO)NC(=O)[C@H](Cc1c[nH]cn1)NC(=O)[C@@H](N)Cc1c[nH]c2ccccc12)C(C)C)C(=O)N[C@@H](Cc1ccc(O)cc1)C(=O)O` [compound 178] (H-WHSVQFWPGQPMY-OH; N-terminus and C-terminus assumed): in test [1], the “Inhibition at 50 μM” value was less than 90% and the “Inhibition at 100 μM” value is reported as 97.30%.
`CSCC[C@H](NC(=O)[C@@H]1CCCN1C(=O)[C@H](CCC(N)=O)NC(=O)CNC(=O)[C@@H]1CCCN1C(=O)[C@H](CCCCN)NC(=O)[C@H](CC(C)C)NC(=O)[C@H](CCC(=O)O)NC(=O)[C@H](CC(C)C)NC(=O)[C@H](Cc1ccccc1)NC(=O)[C@H](Cc1c[nH]cn1)NC(=O)[C@@H](N)CCCCN)C(=O)N[C@@H](Cc1ccc(O)cc1)C(=O)O` [compound 179] (H-KHFLELKPGQPMY-OH; N-terminus and C-terminus assumed): in test [1], the “Inhibition at 50 μM” value was less than 90% and the “Inhibition at 100 μM” value is recorded as less than 90%.
As to `CC[C@H](C)[C@H](NC(=O)[C@H](CCCCN)NC(=O)[C@H](CC(C)C)NC(=O)[C@H](C)NC(=O)[C@H](CC(C)C)NC(=O)[C@H](CC(=O)O)NC(=O)[C@H](Cc1c[nH]cn1)NC(=O)[C@@H](N)CCCCN)C(=O)NCC(=O)N[C@@H](CCC(N)=O)C(=O)N1CCC[C@H]1C(=O)N[C@@H](CCSC)C(=O)N[C@@H](Cc1ccc(O)cc1)C(=O)O` [compound 180] (H-KHDLALKIGQPMY-OH; N-terminus and C-terminus assumed), in test [1], the “Inhibition at 50 μM” value was less than 90% and the “Inhibition at 100 μM” value is recorded as less than 90%.
As to `CSCC[C@H](NC(=O)[C@@H]1CCCN1C(=O)[C@H](CCC(N)=O)NC(=O)CNC(=O)[C@H](C)NC(=O)[C@H](CCCNC(=N)N)NC(=O)[C@H](CC(C)C)NC(=O)[C@H](CCCNC(=N)N)NC(=O)CNC(=O)[C@H](Cc1c[nH]c2ccccc12)NC(=O)[C@H](Cc1c[nH]cn1)NC(=O)[C@H](CCCCN)NC(=O)CNC(=O)CNC(=O)CNC(=O)CNC(=O)[C@H](Cc1ccc(O)cc1)NC(=O)[C@H](CCSC)NC(=O)[C@@H]1CCCN1C(=O)[C@H](CCC(N)=O)NC(=O)CNC(=O)[C@H](C)NC(=O)[C@H](CCCNC(=N)N)NC(=O)[C@H](CC(C)C)NC(=O)[C@H](CCCNC(=N)N)NC(=O)CNC(=O)[C@H](Cc1c[nH]c2ccccc12)NC(=O)[C@H](Cc1c[nH]cn1)NC(=O)[C@@H](N)CCCCN)C(=O)N[C@@H](Cc1ccc(O)cc1)C(=O)O` [compound 261] (H-KHWGRLRAGQPMYGGGGKHWGRLRAGQPMY-OH; N-terminus and C-terminus assumed), in test [2], the “Inhibition at 2.5 μM” value is less than 90%, the “Inhibition at 5 μM” value is 99.3%, the “Inhibition at 10 μM” value came out at 100% and the “Inhibition at 20 μM” value is 100%. Also, in test [2], the “Inhibition at 50 μM” value is 100%.
As to `CSCC[C@H](NC(=O)[C@@H]1CCCN1C(=O)[C@H](CCC(N)=O)NC(=O)CNC(=O)[C@H](C)NC(=O)[C@H](CCCNC(=N)N)NC(=O)[C@H](CC(C)C)NC(=O)[C@H](CCCNC(=N)N)NC(=O)CNC(=O)[C@H](Cc1c[nH]c2ccccc12)NC(=O)[C@H](Cc1c[nH]cn1)NC(=O)[C@@H](N)CCCCN)C(=O)N[C@@H](Cc1ccc(O)cc1)C(=O)NCC(=O)NCC(=O)NCC(=O)NCC(=O)N[C@@H](CCCNC(=N)N)C(=O)N[C@@H](CCCNC(=N)N)C(=O)N[C@@H](CCCNC(=N)N)C(=O)N[C@@H](CCCNC(=N)N)C(=O)N[C@@H](CCCNC(=N)N)C(=O)N[C@@H](CCCNC(=N)N)C(=O)N[C@@H](CCCNC(=N)N)C(=O)N[C@@H](CCCNC(=N)N)C(=O)O` [compound 262] (H-KHWGRLRAGQPMYGGGGRRRRRRRR-OH; N-terminus and C-terminus assumed), in test [2], the “active against Botrytis at 2.5 μM” value is reported as “active”, the “Inhibition at 2.5 μM” value is 99.8%, the “Inhibition at 5 μM” value was 100% and the “Inhibition at 10 μM” value turned out to be 100%. Besides, in test [2], the “Inhibition at 20 μM” value came out at 100% and the “Inhibition at 50 μM” value is reported as 100%.
With `CSCC[C@H](NC(=O)[C@@H]1CCCN1C(=O)[C@H](CCC(N)=O)NC(=O)CNC(=O)[C@H](C)NC(=O)[C@H](CCCNC(=N)N)NC(=O)[C@H](CC(C)C)NC(=O)[C@H](CCCNC(=N)N)NC(=O)CNC(=O)[C@H](Cc1c[nH]c2ccccc12)NC(=O)[C@H](Cc1c[nH]cn1)NC(=O)[C@@H](N)CCCCN)C(=O)N[C@@H](Cc1ccc(O)cc1)C(=O)NCC(=O)NCC(=O)NCC(=O)NCC(=O)N[C@@H](CCCCN)C(=O)N[C@@H](CCCCN)C(=O)N[C@@H](CCCCN)C(=O)N[C@@H](CCCCN)C(=O)N[C@@H](CCCCN)C(=O)N[C@@H](CCCCN)C(=O)N[C@@H](CCCCN)C(=O)N[C@@H](CCCCN)C(=O)O` [compound 263] (H-KHWGRLRAGQPMYGGGGKKKKKKKK-OH; N-terminus and C-terminus assumed), in test [2], the “active against Botrytis at 2.5 μM” value is listed as “active”, the “Inhibition at 2.5 μM” value was 99.7%, the “Inhibition at 5 μM” value was determined as 100% and the “Inhibition at 10 μM” value is recorded as 100%. In test [2], the “Inhibition at 20 μM” value is listed as 100% and the “Inhibition at 50 μM” value was 100%.
Regarding `CSCC[C@H](NC(=O)[C@@H]1CCCN1C(=O)[C@H](CCC(N)=O)NC(=O)CNC(=O)[C@H](C)NC(=O)[C@H](CCCNC(=N)N)NC(=O)[C@H](CC(C)C)NC(=O)[C@H](CCCNC(=N)N)NC(=O)CNC(=O)[C@H](Cc1c[nH]c2ccccc12)NC(=O)[C@H](Cc1c[nH]cn1)NC(=O)[C@@H](N)CCCCN)C(=O)N[C@@H](Cc1ccc(O)cc1)C(=O)NCC(=O)NCC(=O)NCC(=O)NCC(=O)N[C@@H](Cc1ccc(O)cc1)C(=O)N[C@@H](CCSC)C(=O)N1CCC[C@H]1C(=O)N[C@@H](CCC(N)=O)C(=O)NCC(=O)N[C@@H](C)C(=O)N[C@@H](CCCNC(=N)N)C(=O)N[C@@H](CC(C)C)C(=O)N[C@@H](CCCNC(=N)N)C(=O)NCC(=O)N[C@@H](Cc1c[nH]c2ccccc12)C(=O)N[C@@H](Cc1c[nH]cn1)C(=O)N[C@@H](CCCCN)C(=O)O` [compound 264] (H-KHWGRLRAGQPMYGGGGYMPQGARLRGWHK-OH; N-terminus and C-terminus assumed), in test [2], the “Inhibition at 2.5 μM” value is listed as less than 90%, the “Inhibition at 5 μM” value is reported as 96.2%, the “Inhibition at 10 μM” value was found to be 100% and the “Inhibition at 20 μM” value was 100%. The “Inhibition at 50 μM” value in test [2] is 100%.
With `CC[C@H](C)[C@H](NC(=O)[C@H](Cc1c[nH]cn1)NC(=O)[C@@H](N)CCCCN)C(=O)N[C@@H](CC(C)C)C(=O)N[C@@H](CCCCN)C(=O)N[C@@H](Cc1ccccc1)C(=O)N[C@@H](CCCCN)C(=O)N1CCC[C@H]1C(=O)NCC(=O)N[C@@H](CCC(N)=O)C(=O)N1CCC[C@H]1C(=O)N[C@@H](CCSC)C(=O)N[C@@H](Cc1ccc(O)cc1)C(=O)O` [compound 402] (H-KHILKFKPGQPMY-OH; N-terminus and C-terminus assumed), in test [2], the “Inhibition at 2.5 μM” value is recorded as less than 90%, the “Inhibition at 5 μM” value is listed as less than 90%, the “Inhibition at 10 μM” value is 96.2% and the “Inhibition at 20 μM” value was determined as 100%. In test [2], the “Inhibition at 50 μM” value is reported as 100%.

In general, Inhibition refers to the drop in the measured response relative to a control, in per cent.

The values are drawn from patent US20250382332A1, “NOVEL ALPHA-FACTOR BASED PEPTIDES WITH ANTIFUNGAL ACTIVITY” (INVAIO SCIENCES, INC., priority 2024, published 2025).
